Data set [1] is described as follows: Log P by RP-HPLC (HPLC-PDA), extrapolation of Log k to 0% MeOH. The following applies: for Log k / Retention factor (k): RP-C18. Format: physicochemical. As for the experimental part: For each compound, the retention time was reported at different percentages of mobile phases (Table 1). See Materials and Methods and Supplementary Materials for the detailed procedures. (1) k= tR− tM/tM where tR is the retention time of the sample and tM is the retention time of blank (methanol).
Stock solutions of each compound were prepared as follow: 1 mg of the synthesized compound and RSV (control) was weighted and dissolved in 1 mL of dimethyl sulfoxide (DMSO). The working solutions were prepared in methanol at 100 µg/mL. 20 µL of working solutions was injected in HPLC system without pre-treatment.
The HPLC analyses for all new compounds were carried out in isocratic conditions with Milli-Q Water (18.2 MΩ-cm at 25 °C) as solvent A and MeOH as solvent B in different percentages reported in […]. RP-C18 stationary phase (LiChrosorb C18, 150 × 4.6 mm, 5 µm) column was used. All compounds were detected at their maximum wavelength: 322 nm for 1, 301 nm for 2, 324 nm for 3, 324 nm for 4, 373 nm for 5, 322 nm for 6, 320 nm for 7, whereas RSV was detected at 306 nm. The total run time was kept until sample elution.

Data set [2] relates to C2C12 cells. In words: MTT assay, cell vitality/proliferation. It counts as cell-based, mouse. The note with it: C2C12, 48 h, 1 and 10 μM. The protocol: The oxidative stress plays one of the key roles in cell’s life path. For these reasons, to evaluate the possible cytotoxic effects of compounds 1–7 and their effect on the cell proliferative capacity and to define a suitable concentration range, all the new synthesized compounds 1–7 were evaluated for their cytotoxic activity at three different concentrations (1, 10 and 100 μM) via standard MTT assay, using C2C12 cell line (Figure 3). Due to well-known antioxidant and neurodegenerative senescence prevention abilities in addition to enhancing the beneficial effects of physical exercise on the skeletal muscles of the elderly, RSV was used as reference compound [54, 55]. […] For this reason, we performed the same assay also at 48 h for the compounds 5, 6 and RSV (Figure 4).
Prompted by the results obtained for compound 6 as a scavenge ROS due the presence of halogenated groups, we used the widely C2C12 mouse cells as a myogenic model, to study its antioxidant effects following both the evaluation of superoxide anion radical concentration and chemical insults, such as from H2O2. C2C12 cells (CRL 1772; American Type Culture Collection, Rockville, MD, USA) were grown in Dulbecco’s modified Eagle’s medium (DMEM; Euroclone, Pero, Italy) containing 20% foetal bovine serum (Euroclone), […] L-glutamine (Euroclone) and 100 IU mL^−1 penicillin and 100 μg mL^−1 streptomycin (Euroclone). The cells were maintained at 37 °C in a 5% CO2 humidified atmosphere.
Cellular proliferation was tested using a colorimetric assay of 3-[4,5-dimethylthiazol-2-yl]-2,5-diphenyltetrazolium bromide (MTT). We seeded 2000 cells/well in a final volume of 200 μL growth medium in 96-well plates. After 24 h the cells were stimulated with or w/o the newly synthesized compounds for 24 h, or, where indicated, for 48 h. We tested seven new synthesized compounds together with RSV reference at different concentration (1, 10, 100 μM). All compounds were dissolved in DMSO and the experimental dilutions used were made using cellular growth medium. For this reason, the cells were also incubated for 24 h with the DMSO at the same concentration used for the compounds. Incubation was terminated by adding 20 μL of MTT solution (5 mg mL^−1 in phosphate-buffered saline (PBS)) to each well, followed by incubation at 37 °C for 3 h in the dark. After, the plates were centrifuged at 2000 rpm for 15 min. The supernatant was removed, 200 μL dimethylsulfoxide (DMSO) was added to each well, and the plates were incubated for 30 min at 37 °C in the dark. Finally, the plates were read at 540 nm on a scanning multi-well spectrophotometer (Cary50MPR, Varian, Santa Clara, CA, USA).

Data set [3] has as its system C2C12 cells. In words: H2DCFDA assay, intracellular ROS after H2O2 insult. The note with it: C2C12, 24 h pretreatment, 300 µM H2O2, compared to CTRL. It counts as cell-based, mouse. The protocol:
Indeed, the antioxidant activity of compound 6 was also evaluated using an H2DCFDA assay (Figure 6). This assay is one of the most widely used techniques for directly measuring the redox state of a cell. In order to accurately measure ROS and the cellular capability to counteract the H2O2 insult, we used cell-permeable fluorescent and chemiluminescent probes. The fluorescence intensity is proportional to the ROS levels within the cell cytosol and it is in inverse relation to the antioxidant capacity of the cells themselves. The ability to restore the basal level of fluorescence are reported in Figure 6, after 0.5 and 10 min following oxidant stimulus.
Intracellular ROS were quantified by the 2′,7′-dichlorodihydrofluorescein diacetate (H2DCF-DA Cat. No. D6883; Sigma). C2C12 cells were plated (2000 cells/well) into special optics 96-well plates (Corning-Costar, New York, NY, USA) and the cells were treated with RSV at 1 µM and Compound 6 at 1 and 10 µM for 24 h. After the incubation, cells were washed with an imaging buffer and treated with 300 µM H2O2 for an immediate fluorescence measurement. Plates were read every 50 s from 0 to 10 min for kinetic data analysis using a microplate reader (Synergy H1, BioTek), with excitation and emission wavelengths at 490 nm and 520 nm, respectively, and analyzed by Gen 5 version 2.08 (BioTek).

The conditions of data set [4]: cited from earlier work.
Setting [5] is: Log P estimated by RP-HPLC, extrapolated to 0% MeOH, SD at 95% confidence interval.

Regarding `Oc1ccc(/C=C/c2ccc(Cl)cc2)cc1` [Compound 1, 4-[(E)-2-(4-Chlorophenyl)vinyl]phenol], the melting point was 184 to 185 °C. For the same compound, in data set [1] (60% MeOH), the Log k is given as 0.9828 and the “Retention factor (k)” value is given as 9.6110. In data set [1] (65% MeOH), the Log k is listed as 0.6845 and the “Retention factor (k)” value is reported as 4.8361. In addition, in data set [1] (70% MeOH), the Log k is on record as 0.4010 and the “Retention factor (k)” value was 2.5176. Besides, in data set [1] (75% MeOH), the Log k is 0.1330 and the “Retention factor (k)” value is reported as 1.3584. In addition, in data set [1] (80% MeOH), the Log k is listed as −0.1255 and the “Retention factor (k)” value is 0.7490. In addition, the chromatographic logP in data set [1] (setting [5]) is 4.29 ± 0.07.
Compound `Oc1ccc(/C=C/c2ccccc2)cc1Cl` [Compound 2, 2-Chloro-4-[(E)-2-phenylvinyl]phenol] displayed a melting point of 126 to 127 °C. In addition, in data set [1] (60% MeOH), the Log k is 1.0560 and the “Retention factor (k)” value is 11.3757. Further, in data set [1] (65% MeOH), the Log k is listed as 0.7826 and the “Retention factor (k)” value is given as 6.0620. In data set [1] (70% MeOH), the Log k is given as 0.5049 and the “Retention factor (k)” value is 3.1984. Further, in data set [1] (75% MeOH), the Log k is reported as 0.2243 and the “Retention factor (k)” value was 1.6761. In addition, in data set [1] (80% MeOH), the Log k is on record as 0.0216 and the “Retention factor (k)” value is given as 1.0510. Further, the chromatographic logP in data set [1] (setting [5]) is 4.2 ± 0.12.
For the compound `Oc1ccc(/C=C/c2ccc(Cl)cc2Cl)cc1` [Compound 3, 4-[(E)-2-(2,4-Dichlorophenyl)vinyl]phenol], the melting point is 119 to 120 °C. Further, in data set [1] (50% MeOH), the Log k is given as 2.1310 and the “Retention factor (k)” value was 135.2173. Further, in data set [1] (60% MeOH), the Log k is 1.4819 and the “Retention factor (k)” value is reported as 30.3325. In data set [1] (70% MeOH), the Log k is on record as 0.8936 and the “Retention factor (k)” value is given as 7.8267. Besides, in data set [1] (75% MeOH), the Log k is 0.6070 and the “Retention factor (k)” value is given as 4.0455. Also, in data set [1] (80% MeOH), the Log k is recorded as 0.3308 and the “Retention factor (k)” value is given as 2.1420. The chromatographic logP in data set [1] (setting [5]) is 5.11 ± 0.07.
`Oc1ccc(/C=C/c2ccc(Cl)cc2Cl)cc1Cl` [Compound 4, 2-Chloro-4-[(E)-2-(2,4-dichlorophenyl)vinyl] phenol] displayed a melting point of 135 to 136 °C. For the same compound, in data set [1] (60% MeOH), the Log k is listed as 1.7713 and the “Retention factor (k)” value is 59.0580. In data set [1] (65% MeOH), the Log k is listed as 1.4456 and the “Retention factor (k)” value is on record as 27.8973. In addition, in data set [1] (70% MeOH), the Log k is reported as 1.1149 and the “Retention factor (k)” value was 13.0290. Further, in data set [1] (75% MeOH), the Log k is reported as 0.7826 and the “Retention factor (k)” value is 6.0620. For the same compound, in data set [1] (80% MeOH), the Log k is 0.5423 and the “Retention factor (k)” value was 3.4855. Moreover, in data set [1] (setting [5]), the “Log P * ± SD” value is 5.50 ± 0.14 and the chromatographic logP is greater than 5.
For the compound `O=[N+]([O-])c1ccc(/C=C/c2ccc(O)c(Cl)c2)cc1` [Compound 5], the “cell vitality (MTT reduction)” value with C2C12 cells [2] is recorded as “non-significant dose-dependent decrease of vitality”. The Log k in data set [1] (60% MeOH) is on record as 0.9974; in data set [1] (65% MeOH) it was 0.7161; in data set [1] (70% MeOH), 0.4442; in data set [1] (75% MeOH), 0.1536; in data set [1] (80% MeOH) it was −0.0669. For the same compound, the “Retention factor (k)” value in data set [1] (60% MeOH) is given as 9.9412; in data set [1] (65% MeOH), 5.2008; in data set [1] (70% MeOH), 2.7812; in data set [1] (75% MeOH), 1.4243; in data set [1] (80% MeOH), 0.8573. Moreover, in data set [1] (setting [5]), the chromatographic logP is 4.22 ± 0.09.
`Oc1ccc(/C=C/c2ccc(C(F)(F)F)cc2)cc1` [Compound 7, 4-{(E)-2-[4-(Trifluoromethyl)phenyl]vinyl}phenol] registered a melting point of 161 to 163 °C. Moreover, in data set [1] (60% MeOH), the Log k is 1.1515 and the “Retention factor (k)” value is 14.1757. Also, in data set [1] (65% MeOH), the Log k is 0.8368 and the “Retention factor (k)” value is 6.8682. In data set [1] (70% MeOH), the Log k was 0.5372 and the “Retention factor (k)” value was 3.4447. Also, in data set [1] (75% MeOH), the Log k is 0.2568 and the “Retention factor (k)” value is listed as 1.8063. In data set [1] (80% MeOH), the Log k is −0.0429 and the “Retention factor (k)” value is 0.9059. Further, in data set [1] (setting [5]), the chromatographic logP is 4.7 ± 0.05.
For `Oc1ccc(/C=C/c2cc(O)cc(O)c2)cc1` [RSV, 3,5,4′-trihydroxy-trans-stilbene, reference compound], in the data set with C2C12 cells [3], the “ROS levels (H2DCFDA fluorescence)” value was “reduce the ROS levels”. For the same compound, the “cell vitality (MTT reduction)” value in the data set with C2C12 cells [2] was “did not change the effects respect to the control”. The Log k is recorded as 1.6477 in data set [1] (20% MeOH); 1.3573 in data set [1] (25% MeOH); 1.0693 in data set [1] (30% MeOH); 0.5493 in data set [1] (40% MeOH); 0.0010 in data set [1] (50% MeOH). In addition, the “Retention factor (k)” value in data set [1] (20% MeOH) is recorded as 44.4282; in data set [1] (25% MeOH), 22.7655; in data set [1] (30% MeOH) it was 11.7294; in data set [1] (40% MeOH), 3.5427; in data set [1] (50% MeOH) it was 1.0024. Also, in data set [1] (setting [5]), the chromatographic logP is 2.47 ± 0.11. The bioavailability result in data set [4] is “less than 1%”. Further, the oral bioavailability result in data set [4] (in vivo) is reported as “almost zero”.
